This is an account of results in ChEMBL document CHEMBL1154668, “Design and synthesis of 6-oxo-1,6-dihydropyridines as CDK5 inhibitors” (Bioorg Med Chem Lett, 2009).

In data set [1] the target is Cyclin-dependent kinase 5/CDK5 activator 1 (Homo sapiens, UniProt Q00535). The data set is described as follows: Inhibition of human CDK5/p25 assessed as histone h1 phosphorylation in presence of ATP. It counts as protein-complex assay.
The species entered for data set [2] is Homo sapiens. Kind of data set: Selectivity for human CDK5/p25 over human CDK2/cyclin E2.
Data set [3] relates to Brain. The data set is described as follows: Drug uptake in rat brain at 2 mg/kg, iv. The format is ADME, organism-based. Further details: dose 2 mg/kg, route intravenous. To be noted: in vivo.

Cyclin-dependent kinase 5/CDK5 activator 1, sequence (Q00535 whole entry): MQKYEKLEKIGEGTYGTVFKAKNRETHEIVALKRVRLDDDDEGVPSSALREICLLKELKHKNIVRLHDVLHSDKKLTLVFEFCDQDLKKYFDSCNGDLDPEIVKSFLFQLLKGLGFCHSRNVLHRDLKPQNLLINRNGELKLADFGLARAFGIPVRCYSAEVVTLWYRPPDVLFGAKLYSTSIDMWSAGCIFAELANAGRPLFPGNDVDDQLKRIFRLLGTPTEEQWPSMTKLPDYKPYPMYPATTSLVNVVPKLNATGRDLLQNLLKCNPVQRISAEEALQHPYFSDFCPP
Cyclin-dependent kinase 5/CDK5 activator 1, sequence (Q15078 whole entry, further chain): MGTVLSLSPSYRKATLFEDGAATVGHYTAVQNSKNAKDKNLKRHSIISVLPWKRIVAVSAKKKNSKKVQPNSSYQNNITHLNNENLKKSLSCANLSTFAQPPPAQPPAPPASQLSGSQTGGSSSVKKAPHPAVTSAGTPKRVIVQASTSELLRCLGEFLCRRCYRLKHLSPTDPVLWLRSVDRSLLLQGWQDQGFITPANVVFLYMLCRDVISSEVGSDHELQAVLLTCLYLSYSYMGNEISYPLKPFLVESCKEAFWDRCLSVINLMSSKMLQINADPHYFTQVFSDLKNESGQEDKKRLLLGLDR

As a reminder, the IC50 is the concentration that inhibits the measured activity by half. Turning to `CCOC(=O)c1cc(-c2csc(CS(=O)(=O)c3ccccc3)n2)c(=O)[nH]c1COCc1ccccc1`, the IC50 in data set [1] came to 5.3 nM. Besides, the fold change (FC) in data set [2] was 70.

As to `CCOC(=O)c1cc(-c2csc(CS(=O)(=O)c3ccccc3)n2)c(=O)[nH]c1C`, the IC50 in data set [1] turned out to be 3.3 nM. In data set [3], this molecule displayed a Drug uptake of 44 ng/g. Moreover, the fold change (FC) in data set [2] worked out at 70.

In the case of `CC(C)c1[nH]c(=O)c(-c2csc(-c3ccncc3)n2)cc1C(=O)OC1CCCN(C)C1` (stereo not drawn), in data set [1], the IC50 came out at 73 nM.

With `CCCc1[nH]c(=O)c(-c2csc(-c3ccncc3)n2)cc1C(=O)OCC`, the IC50 in data set [1] was found to be 55 nM.

Regarding `CCOC(=O)c1cc(-c2csc(-c3ccnc(NC)c3)n2)c(=O)[nH]c1C(C)C`, the IC50 in data set [1] was 28 nM.

On to `CC(C)c1[nH]c(=O)c(-c2csc(-c3ccncc3)n2)cc1C(=O)OCCN1CCCC1`, for which the IC50 in data set [1] was 112 nM.

In the case of `CCN(CC)CCOC(=O)c1cc(-c2csc(-c3ccncc3)n2)c(=O)[nH]c1C(C)C`, the IC50 in data set [1] is 53 nM.

As to `CC(C)c1[nH]c(=O)c(-c2csc(-c3ccncc3)n2)cc1C(=O)OCCc1ccccc1`, the IC50 in data set [1] came to 119 nM.

With `CC(C)c1[nH]c(=O)c(-c2csc(-c3ccncc3)n2)cc1C(=O)OC1CCN(C)CC1`, in data set [1], the IC50 came to 647 nM.

On to `CCOC(=O)c1cc(-c2csc(-c3ccncc3)n2)c(=O)[nH]c1C1CC1`, for which the IC50 in data set [1] stood at 198 nM.

Take `CCOC(=O)c1cc(-c2csc(-c3ccncc3)n2)c(=O)[nH]c1C(C)C`: the IC50 in data set [1] is 157 nM. Also, the Drug uptake in data set [3] was 4640 ng/g.

As for `CCOC(=O)c1cc(-c2csc(-c3ccnc(OC)c3)n2)c(=O)[nH]c1C(C)C`, in data set [1], the IC50 was found to be 672 nM.

Consider `CCN(CC)CCCOC(=O)c1cc(-c2csc(-c3ccncc3)n2)c(=O)[nH]c1C(C)C`, for which, in data set [1], the IC50 amounted to 47 nM.

Consider `CCN(CC)CC(C)OC(=O)c1cc(-c2csc(-c3ccncc3)n2)c(=O)[nH]c1C(C)C` (stereo not drawn), for which the IC50 in data set [1] was found to be 36 nM.

In the case of `CCCc1[nH]c(=O)c(-c2csc(CS(=O)(=O)c3ccccc3)n2)cc1C(=O)OCC`, the IC50 in data set [1] came out at 1.4 nM. The molecule also showed a fold change (FC) in data set [2] of 70.

Regarding `CCOC(=O)c1cc(-c2csc(-c3ccncc3)n2)c(=O)[nH]c1C`, the IC50 in data set [1] was found to be 131 nM.

With `CCOC(=O)c1cc(-c2csc(-c3ccnc(N)c3)n2)c(=O)[nH]c1C`, the IC50 in data set [1] stood at 20 nM.

Turning to `CCOC(=O)c1cc(-c2csc(-c3ccnc(NCCN(CC)CC)c3)n2)c(=O)[nH]c1C`, in data set [1], the IC50 was 139 nM.

In the case of `CCOC(=O)c1cc(-c2csc(-c3ccncc3)n2)c(=O)[nH]c1CC`, the IC50 in data set [1] was found to be 4.1 nM.

In the case of `CCOC(=O)c1cc(-c2csc(-c3ccncc3)n2)c(=O)[nH]c1C(F)(F)F`, the IC50 in data set [1] stood at 11500 nM.

For the molecule `CCOC(=O)c1cc(-c2csc(-c3ccncc3)n2)c(=O)[nH]c1COCc1ccccc1`, in data set [1], the IC50 was 779 nM.

Turning to `CCOC(=O)c1cc(-c2csc(-c3ccnc(Cl)c3)n2)c(=O)[nH]c1C`, the IC50 in data set [1] stood at 160 nM.

Consider `CCOC(=O)c1cc(-c2csc(-c3ccnc(NCC(C)C)c3)n2)c(=O)[nH]c1C`, for which, in data set [1], the IC50 is 14 nM.
